Several values for one entry are separate records, joined by “and”; a condition that tells them apart may be missing. Equal entries are not always repeated. Where two headings read alike, the source gives them in different places.
Legend:
[1] = Cytotoxicity, cell viability assay in normal cells; format: cell-based, human; details: human, PBMC, fraction of 0 μM control, read-out: relative cell viability (Fig 6a), replicates
PBMC = assay: Cytotoxicity, cell viability assay in normal cells; format: cell-based, human; details: Fig 5c
SU-DHL-4 cells [2] = assay: Cell viability assay (CellTiter-Glo luminescence); format: cell-based, human
Description: (§1) 5000 cells as indicated were cultured in 96-well plate with 100 μl of media. […] After treatment, the cells were incubated with 100 μl buffer for 10 min at room temperature following the instructions of CellTiter-Glo kit (Promega, Madison, WI). Luminescence was detected using a multi-mode reader Cytation 5 (BioTek, Winooski, VT). […] Two independent experiments done in duplicates were performed.

Raji cells [3] = assay: Cell viability assay (CellTiter-Glo luminescence); format: cell-based, human; details: for Cell viability (luminescence): duplicates
Description: as §1

MOLM14 xenografts = assay: In vivo tumorigenic assay using xenografts, tumor size; set-up: species or system NOD/SCID mice; details: for tumor size (Fig 5d&5e), individual mice: MOLM14 xenograft
Description: Six-week-old male NOD.CB17-Prkdc^scid/J (NOD/SCID) mice (Jackson Labs, Bar Harbor, ME, USA) were used as the human-in-mouse xeno-transplantation model. MOLM14 cells (1 × 10^7 cells) were injected into the subcutaneous space on the left flank of the mice. […] Body weight and tumor size were monitored before every injection. After treatment for 2 weeks, the mice were euthanized by CO2 inhalation and the tumors were carefully excised. The tumor volume (mm^3) was measured and calculated using the formula (a × b × b)/2 (a, the largest diameter of two measurements; b, the smallest diameter of two measurements).

[4] = Cytotoxicity, cell viability assay in normal cells; format: cell-based; details: human, fraction of 0 μM control; for viability at 0.000244141 μM: Con. 0.000244141 μM; for viability at 0.015625 μM: Con. 0.015625 μM; for viability at 0.0625 μM: Con. 0.0625 μM; for viability at 1 μM: Con. 1 μM
From the text: Human peripheral blood mononuclear cells (PBMCs), normal T-cells and B-cells were provided by the University of Pennsylvania Human Immunology Core (HIC), and Patient-derived xenografts (PDXs) were obtained from Fox Chase Cancer Center (FCCC). These samples were from different unidentified and healthy donors with written, informed consent. All the procedures were approved by the Institutional Review Board (IRB) and conducted according to the declarations of Helsinki protocols.
as §1

[5] = tested on: hematologic malignancies derived cell lines; assay: Cell viability assay, panel of hematologic malignancy derived cell lines; format: cell-based, human; details: 100 nM, 72 h, lymphoma, leukemia and multiple myeloma cell lines (13 cell lines for analogs)
Description: (§2) 5000 cells as indicated were cultured in 96-well plate with 100 μl of media. On the next day, Brusatol or associated analogs were added once to the cells without media change. After treatment, the cells were incubated with 100 μl buffer for 10 min at room temperature following the instructions of CellTiter-Glo kit (Promega, Madison, WI). Luminescence was detected using a multi-mode reader Cytation 5 (BioTek, Winooski, VT). […] Two independent experiments done in duplicates were performed.

Raji cells [6] = assay: Western blot of PI3K/AKT signaling proteins; format: cell-based, human
Description: (§3) Western blot analyses were performed as previously described. Briefly, total cell lysates were separated by SDS-PAGE gel and transferred to nitrocellulose membrane. The membranes were blocked with 5% non-fat milk, probed with specific antibodies, and visualized using the Odyssey scanner (LiCor Inc., Lincoln, NE).

PI3Kγ = molecular target: T1, PI3Kγ (Homo sapiens, UniProt P48736); assay: Competitive binding pull-down assay in SU-DHL-4 cell lysates, western blot; details: SU-DHL-4 lysates, 51048 together with parent Brusatol
T1 construct: endogenous in cells; host or cells: SU-DHL-4 cells (lysate)
Description: Thirty microgram of purified GST-tagged proteins were pre-cleared with Dynabeads M-280 Streptavidin (Invitrogen, Carlsbad, CA, USA). […] The complexes were harvested and washed with PBS. The collected beads were mixed with SDS loading buffer for further analysis.
as §3

[7] = tested on: PDX-223 (Diffuse large B cell lymphoma); assay: Cell viability assay in patient-derived xenograft cells; format: cell-based, human; details: PDX-223, different concentrations, 72 h
Description: as §2

[8] = tested on: PDX-255 (Burkitt's lymphoma); assay: as above; format: cell-based, human; details: PDX-255, different concentrations, 72 h
Description: as §2

[9] = tested on: PDX-129 (B-cell Follicular lymphoma); assay: as above; format: cell-based, human; details: PDX-129, different concentrations, 72 h
Description: as §2

LCL1 cells [10] = assay: Real-time PCR, mRNA expression; format: cell-based, human
Description: (§4) Real-time PCR experiments were performed as previously described. The experiments were performed in triplicate.

Raji cells [11] = assay: Real-time PCR, mRNA expression; format: cell-based, human
Description: as §4

LCL1 cells [12] = assay: Western blot of PI3K/AKT signaling proteins; format: cell-based, human; details: LCL1, Fig. 2i
Description: as §3

SU-DHL-4 cells [13] = assay: Western blot of PI3K/AKT signaling proteins; format: cell-based, human; details: SU-DHL-4, 0, 50 nM, 100 nM; 0, 12 h, 24 h
Description: as §3

K562 cells = assay: Western blot of PI3K/AKT signaling proteins; format: cell-based, human; details: K562, 0, 50 nM, 100 nM; 0, 12 h, 24 h
Description: as §3

HL-60 cells = assay: Western blot of PI3K/AKT signaling proteins; format: cell-based, human; details: HL-60, 0, 50 nM, 100 nM; 0, 12 h, 24 h
Description: as §3

[14] = B-cells, read-out: relative cell viability (Fig 6c), replicates
[15] = T-cells, read-out: relative cell viability (Fig 6b), replicates
[16] = Raji, 0, 50 nM, 100 nM, 0, 12 h, 24 h

T1 sequence (P48736 whole entry): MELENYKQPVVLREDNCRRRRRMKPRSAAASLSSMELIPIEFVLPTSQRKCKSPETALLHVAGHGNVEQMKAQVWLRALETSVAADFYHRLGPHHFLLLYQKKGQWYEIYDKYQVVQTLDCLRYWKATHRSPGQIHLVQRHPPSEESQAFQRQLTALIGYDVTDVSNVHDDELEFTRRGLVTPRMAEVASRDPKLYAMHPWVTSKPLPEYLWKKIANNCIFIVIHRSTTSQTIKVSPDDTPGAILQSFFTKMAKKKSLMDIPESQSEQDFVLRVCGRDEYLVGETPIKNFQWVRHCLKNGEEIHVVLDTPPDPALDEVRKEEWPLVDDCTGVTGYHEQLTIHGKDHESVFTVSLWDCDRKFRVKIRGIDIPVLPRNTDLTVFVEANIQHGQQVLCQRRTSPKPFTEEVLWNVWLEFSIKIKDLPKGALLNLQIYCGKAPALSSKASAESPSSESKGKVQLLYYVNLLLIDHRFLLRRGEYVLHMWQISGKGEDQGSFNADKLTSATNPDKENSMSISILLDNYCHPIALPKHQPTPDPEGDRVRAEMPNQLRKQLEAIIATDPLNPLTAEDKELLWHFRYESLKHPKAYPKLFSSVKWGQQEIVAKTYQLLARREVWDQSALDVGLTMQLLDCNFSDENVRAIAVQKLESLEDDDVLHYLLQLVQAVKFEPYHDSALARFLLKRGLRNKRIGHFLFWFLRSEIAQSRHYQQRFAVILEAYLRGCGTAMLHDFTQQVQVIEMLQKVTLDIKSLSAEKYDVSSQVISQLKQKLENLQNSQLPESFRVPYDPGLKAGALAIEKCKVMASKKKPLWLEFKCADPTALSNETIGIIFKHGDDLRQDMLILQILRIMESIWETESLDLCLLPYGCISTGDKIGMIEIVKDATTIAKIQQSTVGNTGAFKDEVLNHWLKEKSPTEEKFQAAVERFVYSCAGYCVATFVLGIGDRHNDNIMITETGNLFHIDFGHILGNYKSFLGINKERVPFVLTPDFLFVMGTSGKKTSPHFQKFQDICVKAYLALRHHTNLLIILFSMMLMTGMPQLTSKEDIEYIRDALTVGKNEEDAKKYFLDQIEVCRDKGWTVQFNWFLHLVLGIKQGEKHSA

COC(=O)C12OCC34C(CC5C(C)=C(OC(=O)CNC(=O)OC(C)(C)C)C(=O)CC5(C)C3C(O)C1O)OC(=O)C(OC(=O)C=C(C)C)C24 (centres unmarked) [#15]
viability at 0.000244141 μM ([1]; Con. 0.000244141 μM): 104% | viability at 0.00390625 μM ([1]; Con. 0.00390625 μM): 91.7% | viability at 0.015625 μM ([1]; Con. 0.015625 μM): 76.5% | viability at 0.0625 μM ([1]; Con. 0.0625 μM): 74.9% | viability at 1 μM ([1]; Con. 1 μM): 61.2% | Cell viability, raw luminescence reading (PBMC; Con. 0.01 μM): 24385 and 24514 | Cell viability, raw luminescence reading (PBMC; Con. 0.039 μM): 25686 and 22234 | Cell viability, raw luminescence reading (PBMC; Con. 0.156 μM): 6585 and 8242 | Cell viability, raw luminescence reading (PBMC; Con. 0.625 μM): 7188 and 7989 | Cell viability, raw luminescence reading (PBMC; Con. 10 μM): 9130 and 9273 | viability at 0.00244141 µM (SU-DHL-4 cells [2]; Homo sapiens, SU-DHL-4, 144 h, read-out: relative cell viability (Fig 6d), replicates, SU-DHL-4, Con. 0.00244141 μM, fraction of 0 μM control): 90.7% | viability at 0.0390625 µM (SU-DHL-4 cells [2]; Homo sapiens, SU-DHL-4, 144 h, read-out: relative cell viability (Fig 6d), replicates, SU-DHL-4, Con. 0.0390625 μM, fraction of 0 μM control): 35.2% | viability at 0.15625 µM (SU-DHL-4 cells [2]; Homo sapiens, SU-DHL-4, 144 h, read-out: relative cell viability (Fig 6d), replicates, SU-DHL-4, Con. 0.15625 μM, fraction of 0 μM control): 13.9% | viability at 0.625 µM (SU-DHL-4 cells [2]; Homo sapiens, SU-DHL-4, 144 h, read-out: relative cell viability (Fig 6d), replicates, SU-DHL-4, Con. 0.625 μM, fraction of 0 μM control): 7.7% | viability at 10 µM (SU-DHL-4 cells [2]; Homo sapiens, SU-DHL-4, 144 h, read-out: relative cell viability (Fig 6d), replicates, SU-DHL-4, Con. 10 μM, fraction of 0 μM control): 4.89% | IC50 (Raji cells [3]; Homo sapiens, 72 h): 92.9 nM | viability at 0.00244141 µM (Raji cells [3]; Homo sapiens, read-out: relative cell viability (Fig 6f), replicates, Raji, Con. 0.00244141 μM, fraction of 0 μM control): 120% | viability at 0.0390625 µM (Raji cells [3]; Homo sapiens, read-out: relative cell viability (Fig 6f), replicates, Raji, Con. 0.0390625 μM, fraction of 0 μM control): 63.6% | viability at 0.15625 µM (Raji cells [3]; Homo sapiens, read-out: relative cell viability (Fig 6f), replicates, Raji, Con. 0.15625 μM, fraction of 0 μM control): 25.8% | viability at 0.625 µM (Raji cells [3]; Homo sapiens, read-out: relative cell viability (Fig 6f), replicates, Raji, Con. 0.625 μM, fraction of 0 μM control): 10.3% | viability at 10 µM (Raji cells [3]; Homo sapiens, read-out: relative cell viability (Fig 6f), replicates, Raji, Con. 10 μM, fraction of 0 μM control): 5.59% | tumor size, inhibitory response (MOLM14 xenografts; 2 mg/kg intraperitoneally three times per week, 2 weeks, vs PBS control): strong and rapid inhibitory response | tumor size (Fig 5d&5e), individual mice (MOLM14 xenografts; 0d): 78.7304 and 93.4671 and 63.7324 and 75.8678 and 67.9005 and 67.4325 | tumor size (Fig 5d&5e), individual mice (MOLM14 xenografts; 2d): 74.0736 and 114.773 and 91.676 and 153.055 and 77.875 and 106.489 | tumor size (Fig 5d&5e), individual mice (MOLM14 xenografts; 4d): 75.6994 and 102.99 and 96.7244 and 124.841 and 62.8883 and 83.9808 | tumor size (Fig 5d&5e), individual mice (MOLM14 xenografts; 6d): 103.463 and 91.5117 and 52.853 and 252.562 and 146.711 and 106.359 | tumor size (Fig 5d&5e), individual mice (MOLM14 xenografts; 8d): 91.2302 and 210.386 and 191.93 and 161.391 and 92.482 and 87.983 | tumor size (Fig 5d&5e), individual mice (MOLM14 xenografts; 10d): 119.98 and 398.721 and 249.328 and 242.913 and 135.818 and 159.498 | tumor size (Fig 5d&5e), individual mice (MOLM14 xenografts; 12d): 236.553 and 558.264 and 472.199 and 496.746 and 222.458 and 242.483 | viability at 0.000244141 μM [4, 14]: 80.4% | viability at 0.00390625 μM ([4]; B-cells, Con. 0.00390625 μM, read-out: relative cell viability (Fig 6c), replicates): 96.8% | viability at 0.015625 μM [4, 14]: 100% | viability at 0.0625 μM [4, 14]: 89.1% | viability at 1 μM [4, 14]: 91.6% | viability at 0.000244141 μM [4, 15]: 101% | viability at 0.015625 μM [4, 15]: 83.4% | viability at 0.0625 μM [4, 15]: 82.3% | viability at 1 μM [4, 15]: 83.3% | inhibition of cell viability in panel of cell lines [5]: significantly inhibit | suppression of AKT1, GSK3, and mTOR levels (Raji cells [6]; [16]): largely similar to Brusatol

Brusatol
inhibition of viability (cells inhibited) (SU-DHL-4 cells [2]; SU-DHL-4, 100 nM, 48 h post-treatment): more than 80% | inhibition of viability (cells inhibited) (Raji cells [3]; 100 nM, 48 h post-treatment): more than 80% | Cell viability (luminescence) (Raji cells [3]; cell number 0, 100 nM, 72 h): 0.9927 and 1.007 | Cell viability (luminescence) (Raji cells [3]; cell number 625, 100 nM, 72 h): 3.94 and 4.0527 | Cell viability (luminescence) (Raji cells [3]; cell number 1250, 100 nM, 72 h): 7.303 and 7.093 | Cell viability (luminescence) (Raji cells [3]; cell number 2500, 100 nM, 72 h): 8.911 and 8.321 | Cell viability (luminescence) (Raji cells [3]; cell number 5000, 100 nM, 72 h): 13.6562 and 12.7698 | Cell viability (luminescence) (Raji cells [3]; cell number 10000, 100 nM, 72 h): 11.8436 and 13.905 | binding of 51048 with PI3Kγ in the presence of competitor (PI3Kγ): reduced | tumor size (Fig 5d&5e), individual mice (MOLM14 xenografts; 0d): 79.6409 and 170.904 and 81.1118 and 93.0315 and 105.314 and 98.3496 | tumor size (Fig 5d&5e), individual mice (MOLM14 xenografts; 2d): 114.921 and 89.4339 and 85.1926 and 118.807 and 122.531 and 72.1684 | tumor size (Fig 5d&5e), individual mice (MOLM14 xenografts; 4d): 71.6608 and 87.7482 and 91.4458 and 96.2719 and 66.2604 and 63.9219 | tumor size (Fig 5d&5e), individual mice (MOLM14 xenografts; 6d): 86.9292 and 188.062 and 142.989 and 148.569 and 65.5816 and 390.002 | tumor size (Fig 5d&5e), individual mice (MOLM14 xenografts; 8d): 191.246 and 199.336 and 280.113 and 250.93 and 138.38 and 152.733 | tumor size (Fig 5d&5e), individual mice (MOLM14 xenografts; 10d): 255.462 and 401.539 and 386.529 and 187.744 and 278.266 | tumor size (Fig 5d&5e), individual mice (MOLM14 xenografts; 12d): 394.032 and 649.634 and 755.109 and 281.476 and 493.005 | inhibition of cell viability in panel of cell lines [5]: broad and potent inhibitory effects | inhibition of cell viability [7]: inhibited | inhibition of cell viability [8]: inhibited | inhibition of cell viability [9]: inhibited | mRNA levels of AKT1, ATF3, PIK3CG, and PIK3C2B (LCL1 cells [10]): downregulated | mRNA levels of AKT1, ATF3, PIK3CG, and PIK3C2B (Raji cells [11]): downregulated | levels of AKT1 and GSK3 proteins (LCL1 cells [12]): decreased | protein expression of AKT1, GSK3, and mTOR (SU-DHL-4 cells [13]): substantially reduced | protein expression of AKT1, GSK3, and mTOR (K562 cells): minimally affected | protein expression of AKT1, GSK3, and mTOR (HL-60 cells): minimally affected | protein expression of AKT1, GSK3, and mTOR (Raji cells [6]; [16]): substantially reduced | levels of AKT1 and GSK3 proteins (Raji cells [6]; Raji, Fig. 2h): decreased
